Measurements taken from US9969716B2, “Indole derivatives as modulators of methyl modifying enzymes, compositions and uses thereof” (Constellation Pharmaceuticals, Inc., priority 2013, dated 2018).

How the values were obtained:
[1] = biological target: EZH2 (Homo sapiens, UniProt Q15910); assay: EZH2 assay (rPRC2, 3H SAM methyl transfer to biotinylated oligonucleosomes, FlashPlate); format: biochemical
Experimental: EZH2 Assay: Assays were carried out by mixing rPRC2 together with biotinylated oligonucleosome substrates in the presence of the radio-labeled enzyme co-factor, S-adenosyl-L-methionine (^3H SAM) (Perkin Elmer) and monitoring the enzymatically mediated transfer of tritiated methyl groups from ^3H SAM to histone lysine residues. The amount of resulting tritiated methyl histone product was measured by first capturing the biotinylated oligonucleosomes in streptavidin (SAV) coated FlashPlates (Perkin Elmer), followed by a wash step to remove un-reacted ^3H SAM, and then counting on a TopCount NXT 384 well plate scintillation counter (Perkin Elmer). The final assay conditions for EZH2 were as follows: 50 mM Tris Buffer pH 8.5, 1 mM DTT, 69 μM Brij-35 detergent, 5.0 mM MgCl2, 0.1 mg/mL BSA, 0.2 μM ^3H SAM, 0.2 μM biotinylated oligonucleosomes, 3.6 μM H3K27me3 peptide and 2 nM EZH2.
A 12.5 μL volume of the HMT enzyme, H3K27me3 peptide and oligonucleosome substrate in assay buffer was added to each well of the assay plate using a Multidrop Combi (ThermoFisher). Compounds were pre-incubated with the enzyme for 20 min, followed by initiation of the methyltransferase reaction by addition of 12.5 μL of ^3H SAM in assay buffer (final volume=25 μL). The final concentrations of compounds ranged from a top default concentration of 80 μM down to 0.16 μM in ten 2-fold dilution steps. Reactions were carried out for 60 minutes and quenched with 20 μL per well of 1.96 mM SAH, 50 mM Tris pH 8.5, 200 mM EDTA. Stopped reactions were transferred to SAV coated Flashplates (Perkin Elmer), incubated for 120 min, washed with a plate washer, and then read on the TopCount NXT (1.0 min/well) to measure the amount of methyl histone product formed during the reaction.

[2] = tested on: H3K27me3 mark in HeLa cells; assay: H3K27me3 Alpha Hela Assay (AlphaLISA); format: cell-based; conditions: Homo sapiens, 72 hrs, read-out: EZH2_Cell_H3K27me3_Alpha_HeLa (EC50_K27me3)
Experimental: Ten different doses of each test compound (in a series of 3-fold dilutions) were plated in duplicate 384-well tissue culture treated plates (Catalog #781080; Greiner Bio One; Monroe, N.C.). Hela cells grown in culture were trypsinized and counted using a Countess® cell counter (Catalog # C10281; Life Technologies, Grand Island, N.Y.). Cell were diluted to 67,000 cells per mL in 10% DMEM (Catalog #10569-010 Life Technologies, Grand Island, N.Y.) and 15 μL (1,000 cells) were plated into each well using the Biotek MicroFlo™ Select Dispenser (BioTek Instruments, Inc. Vermont, USA),) of the 384-well plate. Plates were incubated at 37° C./5% CO2 for 72 hrs. One of the duplicate plates was processed for HeLa assay and the other for viability.
To the plate processed for AlphaLISA was added 5 μL per well Cell-Histone Lysis buffer (1λ) (Catalog # AL009F1 Perkin Elmer; Waltham, Mass.) and the plate was incubated at RT for 30 minutes on a plate shaker with low speed (Model#4625-Q Thermo Scientific; Waltham, Mass.). Then, 10 μL per well Histone Extraction buffer (catalog # AL009F2; Perkin Elmer; Waltham, Mass.) was added and the plate further incubated at RT for 20 min on plate shaker with low speed. To each well was then added 10 μL per well of a 5× mix of anti-K27me3 acceptor beads plus Biotinylated anti-Histone H3 (C-ter) Antibody (diluted to 3 nM final) (Catalog #AL118 Perkin Elmer; Waltham, Mass.). Dilution of the acceptor beads and then anti-Histone H3 was with 1× Histone Detection buffer (Catalog # AL009F3 Perkin Elmer; Waltham, Mass.) which was produced diluted from the 10× stock provided. The plate was sealed with an aluminum plate sealer and incubated at 23° C. for 60 min. We then added 10 μL 5× solution of Streptavidin Donor beads (Catalog #6760002 Perkin Elmer; Waltham, Mass.) (20 μg/mL final in 1× Histone Detection Buffer), sealed the plate with Aluminum plate sealer and incubated at 23° C. for 30 min. The plates were then read using an EnVision-Alpha Reader (model #2104 Perkin Elmer; Waltham, Mass.).
Data from both assays was analyzed using Assay Assistant (Constellation Pharmaceuticals In-house product) and Activity Base (IDBS Ltd, Surrey, UK) template. Data files were imported to Assay Assistant and assay conditions were specified. A unique Analysis ID was created and the data files exported to Activity Base. An analysis template was created on Activity Base to measure dose-dependent inhibition of H3K27me3 mark and cell viability respectively. Readout of DMSO wells were used to normalize the data. Resulting curves were fitted using Activity base software Model 205 (IDBS Ltd, Surrey, UK). The data was checked for quality, validated and integrated in excel format using SARview (IDBS Ltd, Surrey, UK).

Chain of EZH2 (Q15910 whole entry): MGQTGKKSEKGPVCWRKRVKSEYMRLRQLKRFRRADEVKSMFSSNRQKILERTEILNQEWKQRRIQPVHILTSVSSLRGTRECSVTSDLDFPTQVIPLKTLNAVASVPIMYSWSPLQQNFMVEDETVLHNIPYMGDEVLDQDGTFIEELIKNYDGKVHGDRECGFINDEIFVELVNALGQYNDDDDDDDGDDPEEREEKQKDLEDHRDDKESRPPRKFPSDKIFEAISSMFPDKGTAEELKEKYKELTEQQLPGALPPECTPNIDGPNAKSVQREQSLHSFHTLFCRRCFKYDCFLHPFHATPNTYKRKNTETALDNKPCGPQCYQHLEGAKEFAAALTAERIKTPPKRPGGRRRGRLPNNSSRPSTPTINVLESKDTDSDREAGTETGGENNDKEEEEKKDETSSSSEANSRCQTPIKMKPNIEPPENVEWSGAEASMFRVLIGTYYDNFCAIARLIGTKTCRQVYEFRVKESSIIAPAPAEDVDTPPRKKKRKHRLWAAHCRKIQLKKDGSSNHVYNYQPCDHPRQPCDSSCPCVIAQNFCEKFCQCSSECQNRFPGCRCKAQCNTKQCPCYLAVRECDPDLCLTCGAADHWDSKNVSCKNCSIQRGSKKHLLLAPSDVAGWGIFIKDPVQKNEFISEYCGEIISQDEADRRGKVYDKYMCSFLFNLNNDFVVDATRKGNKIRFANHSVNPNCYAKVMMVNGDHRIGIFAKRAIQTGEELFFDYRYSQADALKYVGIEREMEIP
Chain of EZH2 (O75530 whole entry partner): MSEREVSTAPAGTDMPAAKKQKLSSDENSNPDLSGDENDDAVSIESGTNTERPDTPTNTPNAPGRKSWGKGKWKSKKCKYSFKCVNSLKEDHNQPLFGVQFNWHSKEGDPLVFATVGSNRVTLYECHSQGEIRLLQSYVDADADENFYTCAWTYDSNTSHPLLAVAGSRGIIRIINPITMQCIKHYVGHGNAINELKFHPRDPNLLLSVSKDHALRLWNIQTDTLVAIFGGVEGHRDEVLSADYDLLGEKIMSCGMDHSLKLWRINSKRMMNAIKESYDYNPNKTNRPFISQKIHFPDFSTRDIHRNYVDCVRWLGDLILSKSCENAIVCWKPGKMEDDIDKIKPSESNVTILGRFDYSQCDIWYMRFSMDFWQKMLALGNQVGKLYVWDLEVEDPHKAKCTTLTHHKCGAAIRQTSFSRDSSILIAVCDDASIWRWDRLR
Chain of EZH2 (Q15022 whole entry partner): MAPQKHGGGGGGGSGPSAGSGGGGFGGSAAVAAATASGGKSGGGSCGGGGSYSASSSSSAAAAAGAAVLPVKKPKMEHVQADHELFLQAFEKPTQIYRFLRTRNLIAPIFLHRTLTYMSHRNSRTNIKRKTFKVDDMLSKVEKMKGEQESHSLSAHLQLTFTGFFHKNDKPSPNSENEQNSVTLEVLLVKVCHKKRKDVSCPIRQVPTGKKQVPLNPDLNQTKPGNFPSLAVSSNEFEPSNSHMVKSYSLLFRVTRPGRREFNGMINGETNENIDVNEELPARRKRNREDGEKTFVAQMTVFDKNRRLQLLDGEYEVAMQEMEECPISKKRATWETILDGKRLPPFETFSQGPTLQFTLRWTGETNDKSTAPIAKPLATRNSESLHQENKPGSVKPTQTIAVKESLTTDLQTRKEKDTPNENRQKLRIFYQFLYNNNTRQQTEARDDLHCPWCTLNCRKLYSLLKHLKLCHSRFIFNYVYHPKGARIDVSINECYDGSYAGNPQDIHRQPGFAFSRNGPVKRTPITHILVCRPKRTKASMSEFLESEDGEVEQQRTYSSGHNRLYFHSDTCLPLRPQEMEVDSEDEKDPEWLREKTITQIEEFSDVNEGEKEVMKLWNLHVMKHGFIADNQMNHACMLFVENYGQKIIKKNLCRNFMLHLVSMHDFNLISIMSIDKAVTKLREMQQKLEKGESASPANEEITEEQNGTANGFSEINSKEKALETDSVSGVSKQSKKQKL

Compound	IC50 [1]	EC50 [2]
COc1cc(C)[nH]c(=O)c1CNC(=O)c1c(C)n([C@H](C)C2CCN(C(=O)Cn3ccnc3C)CC2)c2ccccc12 [Compound 237]	< 100 nM	> 2000 nM
COC(C)(C)CN1CCC([C@@H](C)n2c(C)c(C(=O)NCc3c(C)cc(C)[nH]c3=O)c3ccccc32)CC1 [Compound 127]	< 100 nM	< 400 nM
CCC(C)(C)C(=O)N1CCC([C@@H](C)n2c(C)c(C(=O)NCc3c(OC)cc(C)[nH]c3=O)c3ccccc32)CC1 [Compound 233]	< 100 nM	< 400 nM
COc1cc(C)[nH]c(=O)c1CNC(=O)c1c(C)n([C@H](C)C2CCN(Cc3cc(C)nc(C)c3)CC2)c2ccccc12 [Compound 252]	< 100 nM	< 400 nM
COc1cc(C)[nH]c(=O)c1CNC(=O)c1c(C)n([C@H](C)C2CCN([S+]([O-])C(C)(C)C)CC2)c2ccccc12 (stereo partly drawn) [Compound 256]	< 100 nM	< 400 nM
COc1cc(C)[nH]c(=O)c1CNC(=O)c1c(C)n([C@H](C)C2CCN(Cc3ncccn3)CC2)c2ccccc12 [Compound 241]	< 100 nM	400 to 2000 nM
COc1cc(C)[nH]c(=O)c1CNC(=O)c1c(C)n([C@H](C)C2CCN(Cc3cncnc3)CC2)c2ccccc12 [Compound 240]	< 100 nM	400 to 2000 nM
COc1cc(C)[nH]c(=O)c1CNC(=O)c1c(C)n([C@H](C)C2CCN(C(=O)N3CCC(F)(F)C3)CC2)c2ccccc12 [Compound 248]	< 100 nM	400 to 2000 nM
CCC(F)(F)CN1CCC([C@@H](C)n2c(C)c(C(=O)NCc3c(OC)cc(C)[nH]c3=O)c3ccccc32)CC1 [Compound 108]	< 100 nM	< 400 nM
COc1cc(C)[nH]c(=O)c1CNC(=O)c1c(C)n([C@H](C)C2CCN(C(=O)Cc3cc(C)no3)CC2)c2ccccc12 [Compound 247]	< 100 nM	400 to 2000 nM
COc1cc(C)[nH]c(=O)c1CNC(=O)c1c(C)n([C@H](C)C2CCN(C(=O)C3(C)CC3)CC2)c2ccccc12 [Compound 190]	< 100 nM	400 to 2000 nM
COc1cc(C)[nH]c(=O)c1CNC(=O)c1c(C)n([C@H](C)C2CCN(C(=O)C3CC3(F)F)CC2)c2ccccc12 (stereo partly drawn) [Compound 229]	< 100 nM	400 to 2000 nM
COc1cc(C)[nH]c(=O)c1CNC(=O)c1c(C)n([C@H](C)C2CCN(S(=O)(=O)c3cccnc3)CC2)c2ccccc12 [Compound 258]	< 100 nM	400 to 2000 nM
COc1cc(C)[nH]c(=O)c1CNC(=O)c1c(C)n([C@H](C)C2CCN(C(=O)C(C)=O)CC2)c2ccccc12 [Compound 211]	< 100 nM	400 to 2000 nM
CCCC(=O)N1CCC([C@@H](C)n2c(C)c(C(=O)NCc3c(OC)cc(C)[nH]c3=O)c3ccccc32)CC1 [Compound 209]	< 100 nM	400 to 2000 nM
COc1cc(C)[nH]c(=O)c1CNC(=O)c1c(C)n([C@H](C)C2CCN(C(=O)C3(F)CCC3)CC2)c2ccccc12 [Compound 265]	< 100 nM	< 400 nM
COc1cc(C)[nH]c(=O)c1CNC(=O)c1c(C)n([C@H](C)C2CCN(CCS(C)(=O)=O)CC2)c2ccccc12 [Compound 207]	< 100 nM	> 2000 nM

Compound	IC50 [1]	EC50 [2]
COc1cc(C)[nH]c(=O)c1CNC(=O)c1c(C)n([C@H](C)C2CCN(Cc3cncc(F)c3)CC2)c2ccccc12 [Compound 257]	< 100 nM	< 400 nM
COc1cc(C)[nH]c(=O)c1CNC(=O)c1c(C)n([C@H](C)C2CCN(Cc3ccnc(C#N)c3)CC2)c2ccccc12 [Compound 264]	< 100 nM	< 400 nM
COc1cc(C)[nH]c(=O)c1CNC(=O)c1c(C)n([C@H](C)C2CCN(C(=O)C3(F)CCN(C)CC3)CC2)c2ccccc12 [Compound 242]	< 100 nM	400 to 2000 nM
COc1cc(C)[nH]c(=O)c1CNC(=O)c1c(C)n([C@H](C)C2CCN(C(=O)C3(C)COC3)CC2)c2ccccc12 [Compound 189]	< 100 nM	400 to 2000 nM
COc1cc(C)[nH]c(=O)c1CNC(=O)c1c(C)n([C@H](C)C2CCN(Cc3ccn(C)n3)CC2)c2ccccc12 [Compound 255]	< 100 nM	> 2000 nM
COc1cc(C)[nH]c(=O)c1CNC(=O)c1c(C)n([C@H](C)C2CCN(Cc3cnccn3)CC2)c2ccccc12 [Compound 261]	< 100 nM	< 400 nM
COc1cc(C)[nH]c(=O)c1CNC(=O)c1c(C)n([C@H](C)C2CCN(C(=O)C(C)(C)C(F)(F)F)CC2)c2ccccc12 [Compound 114]	< 100 nM	< 400 nM
COc1cc(C)[nH]c(=O)c1CNC(=O)c1c(C)n([C@H](C)C2CCN(C(=O)C3CC(F)(F)C3)CC2)c2ccccc12 [Compound 228]	< 100 nM	400 to 2000 nM
COc1cc(C)[nH]c(=O)c1CNC(=O)c1c(C)n([C@H](C)C2CCN(Cc3nccn3C)CC2)c2ccccc12 [Compound 239]	< 100 nM	400 to 2000 nM
COc1cc(C)[nH]c(=O)c1CNC(=O)c1c(C)n([C@H](C)C2CCN(C(=O)c3ccc(C#N)cc3)CC2)c2ccccc12 [Compound 214]	< 100 nM	400 to 2000 nM
COc1cc(C)[nH]c(=O)c1CNC(=O)c1c(C)n([C@H](C)C2CCN(C(C)(C)C(C)=O)CC2)c2ccccc12 [Compound 253]	< 100 nM	< 400 nM
COc1cc(C)[nH]c(=O)c1CNC(=O)c1c(C)n([C@H](C)C2CCN(CC(F)(F)CO)CC2)c2ccccc12 [Compound 175]	< 100 nM	400 to 2000 nM
COc1cc(C)[nH]c(=O)c1CNC(=O)c1c(C)n([C@H](C)C2CCN(Cc3cccc(C)n3)CC2)c2ccccc12 [Compound 267]	< 100 nM	< 400 nM
COc1cc(C)[nH]c(=O)c1CNC(=O)c1c(C)n([C@H](C)C2CCN(C(=O)C3(C)CN(C)C3)CC2)c2ccccc12 [Compound 192]	< 100 nM	> 2000 nM
COc1cc(C)[nH]c(=O)c1CNC(=O)c1c(C)n([C@H](C)C2CCN(Cc3cnn(C)c3)CC2)c2ccccc12 [Compound 238]	< 100 nM	> 2000 nM
COc1cc(C)[nH]c(=O)c1CNC(=O)c1c(C)n([C@H](C)C2CCN(CCC#N)CC2)c2ccccc12 [Compound 206]	< 100 nM	< 400 nM
